Assay results published in patent publication US20190350240A1, “Electrolyte-Enhanced Sweetener and Consumable Products Obtained” (priority 2018, published 2019).
Entries after “also recorded” stand apart in the source; their conditions may differ.

How the values were obtained:
[1] = Salt Screen #2: thick and heavy flavor before unpleasant off-flavor (taste, TAS); assay type: in vivo
Excerpt: The second salt screen that was employed tested whether each electrolyte salt could elicit a thick and heavy flavor before it elicited an unpleasant off-flavor, such as saltiness, bitterness, or chalkiness.

[2] = Sugar-like flavor judged by taste judges in water versus 10% or 20% sucrose (taste, intensity, thickness, total); assay type: in vivo; conditions: for improvement in sugar-like flavor: at optimal dose or ratio, versus starting composition without the added ingredient (zero mg/L; pure S1); for optimal level for sugar-like flavor: potassium in 1300 mg/L HPS, sodium in 1300 mg/L HPS + 200 mg/L potassium
Excerpt: The compositions and methods that embody this invention describe how to form electrolyte-enhanced sweetener compositions that better reproduce the flavor of natural sugar with negligible calories and with favorable physical properties. According to these methods, sugar-like flavor was defined by the numerical consensus of four criteria which were sugar-like taste, intensity, thickness, and compatibility and will be described below.
The four criteria were quantified numerically as four percentile scores. Scores of 100% represented the complete and satisfying reproduction of each criterion of sugar-like flavor. For reference, naturally-refined cane sugar received percentile scores of 100% across all criteria because of how the criteria were defined.
Taste (TAS) The criterion of sugar-like taste encompasses how well a sweetener reproduces the taste of sugar at a high level of sweetness corresponding to a 10% sucrose solution. Ten percent sucrose is equivalent to a 12-ounce soft drink (355 milliliters) sweetened with 36 grams of sucrose. For reference, the sweet taste of sugar develops and recedes across the entire tongue with each tasting in a characteristic way. The time profile of sugar's sweetness is something we generally take for granted until we taste a sweetener with a different time profile that makes it taste unnatural and unsatisfying.
According to a preferred embodiment of this invention, the tastes of sweetener compositions (TAS) were compared to 10% sucrose and evaluated based on the following taste and olfactory flavor properties: • 1. Sweetness across the entire tongue and not in throat; • 2. Rapid onset of sweetness without delay; • 3. Rapid decay of sweetness without lingering after-taste; • 4. Sweetness without bitterness; • 5. Subtle caramel flavor without off-flavors.
Intensity (INT) The criterion of sugar-like intensity represents how well a sweetener reproduces the same five taste properties of sugar (represented by TAS) but at a very high level of sweetness typical in desserts. Drinking water sweetened with 20% sucrose is used as a taste reference for evaluating INT.
Thickness (THK) The criterion of sugar-like thickness represents how well a sweetener reproduces the thick texture of sugar-sweetening that becomes syrupy at higher dose levels. Drinking water samples sweetened with 10% sucrose and with 20% sucrose are used as taste references for evaluating THK.
Total (TOT) The consensus of the percentile scores for the four criteria was determined by numerical averaging to form a total score of sugar-like flavor.
The first three criteria for sugar-like flavor—taste TAS, intensity INT, and thickness THK—were evaluated by taste judges who compared water sweetened to a level of either 10% or 20% sucrose to water sweetened with various sweetener compositions. A level of 10% sucrose represents the sweetness of typical soft drinks and 20% sucrose represents the sweetness of typical desserts.
Taste judges initially evaluated the sugar-like taste TAS and thickness THK of sweetener compositions at the sweetness level of typical soft drinks. They rinsed their mouths with plain water and then evaluated a 100 mL sample of 10% sucrose solution. They took a 15 mL aliquot of the sample into the mouth and swished it around for about 15 seconds. For each mouthful, they evaluated the time course of sweetness onset and decay, natural sugar flavors, off-flavors, and thickness, and they expelled the aliquot into a waste receptacle. Judges continued taking a series of mouthfuls up to a total volume of 100 mL to evaluate the changes in flavor perception from one mouthful to the next related to the natural loss of perceived sweetness, flavor, and thickness of sugar solutions. This protocol was then repeated for each 100 mL sample of spring water sweetened with various sweetener compositions. […]

[3] = Salt Screen #4: compatibility (CMP) in sweetened cold-brewed coffee and tea; assay type: in vivo; conditions: sweetener compositions in cold-brewed coffee and tea, pH-sensitive flavors
Procedure: The fourth salt screen that was employed tested whether each electrolyte salt could enhance the sweetener compositions used to sweeten cold-brewed coffee and tea without disturbing the flavors of these pH-sensitive beverages. The disturbance of pH-sensitive flavors is an important screen because many electrolyte salts influence the pH of the beverages to which they are added. This screen was only applied to the five electrolyte salts that passed the three earlier salt screens.

[4] = Carbohydrate screen: flavor at strength of 10% sucrose in water, and mixed with the sweetener composition; assay type: in vivo; conditions: dissolved into one liter of water to a strength of 10% sucrose
Procedure: Natural sugars and sugar alcohols were screened from commercial sources as candidates for the carbohydrate composition. Refined and unrefined cane sugar, brown sugar, cane juice sugar, maple sugar, coconut sugar, glucose, fructose, and erythritol were dissolved into one liter of water to a strength of 10% sucrose and evaluated for flavor.
Both refined and unrefined cane sugar solutions were mixed with solutions containing the sweetener composition mixed to a strength of 10% sucrose.

[5] = in sweetener compositions exposed to ambient air (hygroscopicity)
Excerpt: The third salt screen that was employed tested whether each electrolyte salt could enhance the flavor of sweetener compositions and remain shelf stable when exposed to ambient air. This screen is related to the water solubility of the salt. When salts have too much water solubility, they can become hygroscopic which means they absorb water from ambient air. Hygroscopic salts become wet and clumpy when exposed to ambient air, and they cause sweetener compositions containing them to become difficult to package and dispense because of this instability to air exposure.
This third salt screen is complementary to the first salt screen because it identifies salts with too much water solubility, while the first salt screen identifies salts with too little water solubility.

[6] = cool drinking water, without lengthy stirring or heating
Excerpt: The first salt screen that was employed tested whether each electrolyte salt had sufficient water solubility. The screen tested whether each salt could dissolve sufficiently into cool drinking water and […] without the need for lengthy stirring or heating.

[7] = thick and heavy flavor before saltiness, bitterness or chalkiness

## [Ca+2].[Cl-].[Cl-] [Calcium Chloride, calcium chloride]
[1]; in vivo
  Does the Electrolyte Salt Have Suitable Taste (TAS)?: Yes

## [Cl-].[Na+] [Sodium Chloride, sodium chloride]
[1]; [7]
  Does the Electrolyte Salt Have Suitable Taste (TAS)?: Yes
[2]; HPS 1300 mg/L, potassium 200 mg/L, dietary sodium level of 150 grams per liter (so in the source)
  taste of sweetened, potassium-enriched water with sodium chloride: thick and only mildly salty
[2]; HPS 1300 mg/L, potassium 200 mg/L, sodium level of 600 mg/L
  taste of sweetened, potassium-enhanced water with sodium chloride: unacceptably salty
[2]
  improvement in sugar-like flavor: about 5%
  optimal level for sugar-like flavor: 40 mg/L
[3]
  Does the Electrolyte Salt have Suitable Compatibility (CMP)?: Yes
[3]; listed as sodium chloride
  Does the Electrolyte Salt have Suitable Compatibility (CMP)?: passed

## O=C([O-])[O-].[Ca+2] [Calcium Carbonate, calcium carbonate]
[1]; in vivo
  Does the Electrolyte Salt Have Suitable Taste (TAS)?: NO, Develops chalky and dry flavor; also recorded: tasted chalky

## OC[C@@H](O)[C@@H](O)CO [Erythritol, erythritol]
[4]
  flavor evaluation of carbohydrate candidates: drying sensation on the tongue or cooling sensation on the throat

## CC(O)C(=O)[O-].CC(O)C(=O)[O-].[Ca+2] (stereo not shown) [Calcium Lactate, calcium lactate]
[1]; [7]
  Does the Electrolyte Salt Have Suitable Taste (TAS)?: Yes
[5]
  Does the Electrolyte Salt have Suitable Shelf Stability?: Yes
[3]
  Does the Electrolyte Salt have Suitable Compatibility (CMP)?: NO, Develops sour/chalky flavor
[3]; listed as calcium lactate
  Does the Electrolyte Salt have Suitable Compatibility (CMP)?: sour and chalky

## O=C(CO)[C@@H](O)[C@H](O)[C@H](O)CO [Fructose, fructose]
[4]
  flavor evaluation of carbohydrate candidates: lose its sweetness at higher temperatures

## O=P([O-])(O)O.[Na+] [Sodium Phosphate Monobasic, sodium phosphate monobasic]
[1]; [7]
  Does the Electrolyte Salt Have Suitable Taste (TAS)?: Yes
[5]
  Does the Electrolyte Salt have Suitable Shelf Stability?: Yes
[3]
  Does the Electrolyte Salt have Suitable Compatibility (CMP)?: NO, Develops sour/chalky flavor
[3]; listed as sodium phosphate monobasic
  Does the Electrolyte Salt have Suitable Compatibility (CMP)?: sour and chalky

## [Cl-].[K+] [Potassium Chloride, potassium chloride]
[1]; [7]
  Does the Electrolyte Salt Have Suitable Taste (TAS)?: Yes
[2]
  improvement in sugar-like flavor: about 10%
  optimal level for sugar-like flavor: 200 mg/L
[5]
  Does the Electrolyte Salt have Suitable Shelf Stability?: Yes
[3]
  Does the Electrolyte Salt have Suitable Compatibility (CMP)?: Yes
[3]; listed as Potassium chloride
  Does the Electrolyte Salt have Suitable Compatibility (CMP)?: passed
[6]
  Does the Electrolyte Salt Have Suitable Solubility?: Yes

## O=C([O-])O.[Na+] [Sodium Bicarbonate, sodium bicarbonate]
[1]; [7]
  Does the Electrolyte Salt Have Suitable Taste (TAS)?: Yes
[3]
  Does the Electrolyte Salt have Suitable Compatibility (CMP)?: NO, Develops sour/chalky flavor
[3]; listed as sodium carbonate
  Does the Electrolyte Salt have Suitable Compatibility (CMP)?: sour and chalky

## [Cl-].[Cl-].[Mg+2] [Magnesium Chloride, magnesium chloride]
[1]; in vivo
  Does the Electrolyte Salt Have Suitable Taste (TAS)?: Yes

## O=S(=O)([O-])[O-].[Mg+2] [Magnesium Sulfate, magnesium sulfate]
[1]; in vivo
  Does the Electrolyte Salt Have Suitable Taste (TAS)?: NO, Develops sour and dry flavor; also recorded: tasted sour
